How the values were obtained:
[1] = test system: Ouabain Induced Arrhythmias; assay: Ouabain induced arrhythmias, correction by i.v. infusion; assay type: in vivo, adult mongrel dogs; details: Ouabain-Induced arrhythmia, dogs under barbiturate anesthesia, infusion into femoral vein at 1 mg/kg/min
Experimental: correction of existing cardiac arrhythmias of ventri- cular origin was carried out on (1) adult mongrel dogs which were under barbiturate anesthesia during the test. A Grass Model 7 polygraph was used for recording femoral arterial blood pressure (Statham P23AC transducer) and the electrocardiogram (Grass 7P4 preamplifier). Ouabain was given intravenously in an initial dose of 40 µg/kg and in a second dose of […] 30 minutes after the first dose and in subsequent doses of 10 µg/kg which were repeated at 1.5 min. intervals as required for producing cardiac arrhythmias that persisted for at least 15 minutes. When the arrhythmias were established, the test compounds were administered by infusion (Harvard Model 942 Infusion Pump) into a femoral vein at a rate of 1 mg/kg/min. Concentration of compound was adjusted according to the weight of the dog to allow a volume infusion of 1 ml/min. The compound was considered to be active as an antiarrhythmic agent if reversion to the sinus rhythm occurred and this was maintained for at least 30 min.

[2] = test system: Coronary Artery Ligation Induced Arrhythmias; assay: Coronary artery ligation induced arrhythmias; assay type: in vivo, Adult mongrel dogs; details: I.V.; Coronary Artery Ligation Induced arrhythmia; conscious dogs; infusion into saphenous vein at 0.5 mg/kg/min
Experimental: Adult mongrel dogs which were in the conscious state were used for the test and cardiac arrhythmias were induced by prior (22-24 hr) surgical preparation in which blood flow through a coronary artery was occluded by use of a constrictor device as reported by Smith et al, 1973. A Grass Model 79 polygraph was used for recording the electrocardiogram (Grass 7P4 preamplifier).
The test compound was administered by infusion (Harvard Model 942 Infusion Pump) into a sapheneous vein to one group of dogs at a rate of 0.5 mg/kg/min. Concentration of compound was adjusted according to the weight of the dog to allow a volume of infusion of 0.5 ml/min. The test compound was administered orally by gavage to another group of dogs at dose levels of 10 to 40 mg/kg. The test compound was prepared in distilled water to give a total volume of 20 ml. Following the administration of the test compound, the heart rate, number of ectopic cardiac beats per min, and the percent ectopic beats (ectopic beats/BR X100) were recorded at 15 min. intervals. The compound was considered active if it abolished the ectopic ventricular frequency and caused a return to normal sinus rhythm within 2 hours of administration.

N'-[2-(Diethylamino)ethyl]-N-(1-methylethyl)-N[2-(phenylsulphonyl)ethyl]urea maleate[1:1] [Example 9]
Correcting Dose Range [1]: 4 to 15 mg/kg
Correcting Dose Range [2]: 2 to 5 mg/kg
